The results in this text go back to patent publication US11504395B2, “Oral pyrophosphate for use in reducing tissue calcification” (Stichting Het Nederlands Kanker Instituut-Antoni van …, priority 2016, dated 2022).

For one test, the system named is Abcc6−/− mice. As to the method:
The calcium content of heart tissue was determined.
(§1) All animals were housed in approved animal facilities at the Research Center for Natural Sciences, Hungarian Academy of Sciences. Mice were kept under routine laboratory conditions with 12 hour light-dark cycle with ad libitum access to water and chow. The RCNS, Hungarian Academy of Sciences Institutional Animal Care and Use Committees approved this study. Experiments have been conducted according to national guidelines. Cryo injury was performed and tissue calcium content was determined as described by Brampton, et al. ((2014) Am J Pathol. 184, 159-70). Calcification of the vibrissae was studied by histochemistry following the method described Klement, et al. ((2005) Mol Cell Biol. 25, 8299-310. The number of calcified vibrissae (hair capsules) was counted independently and the onset of tiptoe walking phenotype was determined by two investigators in a blinded fashion.
Abcc6^−/− mice faithfully recapitulate human PXE, with calcifying lesions found in skin, eyes and blood vessels. A drawback of the Abcc6^−/− mice is the relatively late onset of the first lesions, making this model less convenient for rapid screening of new treatments.

Test [1] deals with Tiptoe walking (ttw) mice. Here is the method: as §1
Tiptoe walking (ttw) mice have an inactivating mutation in Enpp1 and represent a model for GACI.

Like-named read-outs stand apart in the source and are kept apart here.

On to `O.O.O.O.O.O.O.O.O.O.O=P([O-])([O-])OP(=O)([O-])[O-].[Na+].[Na+].[Na+].[Na+]` [PPi, Sodium pyrophosphate tetrabasic decahydrate], for which, in the test on Abcc6−/− mice (IP delivery, 6 mg PPi/kg body weight for 7 days, Abcc6−/− mice, data not shown), the “cardiac calcification (ICC) induced by cryo-injury” value is “reduced”. For the same compound, the “PPi concentration giving maximal inhibition of ICC” value in the test on Abcc6−/− mice (PPi in drinking water, dose-dependent inhibition, FIG. 1) stood at 10 mM. In addition, the “calcification of the dermal sheet surrounding the vibrissae” value in test [1] (10 mM oral PPi during pregnancy and lactation and continued in pups after weaning, ttw mice, FIG. 3) is “greatly reduced”; in test [1] (PPi provided during lactation, ttw mice) it was “no significant impact”; in test [1] (ttw pups treated with PPi only after weaning) it was “no different from the control-treated group”.
